Test results taken from PubChem BioAssay (NCI).
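Tested at 5 concentrations; 48 h exposure; 96-well plates; endpoints linearly interpolated, else capped at highest concentration. TGI is the concentration that stops growth completely.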

Tests used:
Test in all cases: NCI tumour cell line growth inhibition, 48 h
SK-MEL-2 melanoma = tested on: SK-MEL-2 melanoma
MALME-3M melanoma = tested on: MALME-3M melanoma
MCF7 breast = tested on: MCF7 breast
K-562 leukemia = tested on: K-562 leukemia
NCI-H23 lung = tested on: NCI-H23 lung
MDA-N = tested on: MDA-N
HT29 colon = tested on: HT29 colon
OVCAR-8 ovarian = tested on: OVCAR-8 ovarian
A549 NSCLC = tested on: A549 NSCLC
KM12 colon = tested on: KM12 colon
HCT-15 colon = tested on: HCT-15 colon

| Compound | TGI (SK-MEL-2 melanoma) [µM] | TGI (MALME-3M melanoma) [µM] | TGI (MCF7 breast) [µM] | TGI (K-562 leukemia) [µM] | TGI (NCI-H23 lung) [µM] | TGI (MDA-N) [µM] | TGI (HT29 colon) [µM] | TGI (OVCAR-8 ovarian) [µM] | TGI (A549 NSCLC) [µM] | TGI (KM12 colon) [µM] | TGI (HCT-15 colon) [µM] |
| --- | --- | --- | --- | --- | --- | --- | --- | --- | --- | --- | --- |
| S=c1[nH]nc(NNc2ccccc2)n1Nc1ccccc1 | > 100 | > 100 | > 100 | > 100 | > 100 | > 100 | > 100 | > 100 | > 100 | > 100 | > 100 |
| O=c1ccn(C2OC(CN(O)CCC3C(CO)OC(n4ccc(=O)[nH]c4=O)C3O)C(O)C2O)c(=O)[nH]1 (stereo not given) | > 100 | > 100 | > 100 | > 100 | > 100 | > 100 | > 100 | > 100 | > 100 | > 100 | > 100 |
| O=C(CSC1=NNC2(C(=O)N1)c1ccccc1-c1ccccc12)NC(=S)Nc1ccccc1 | – | > 10 | > 10 | > 10 | > 10 | > 10 | > 10 | > 10 | > 10 | > 10 | > 10 |
| CC(=O)ON(C(C)=O)c1ccc(-c2nc3ccccc3s2)cc1C | > 100 | > 100 | – | > 100 | > 100 | > 100 | > 100 | > 100 | > 100 | > 100 | > 100 |
| COc1ccc(NC2CC(C)N(C(=O)c3ccccc3)O2)cc1 (stereo not given) | > 10 | > 10 | > 10 | > 10 | > 10 | > 10 | > 10 | > 10 | > 10 | – | > 10 |
| c1ccc(CC2(c3cc4ccccc4[nH]3)OCCO2)nc1 | > 100 | > 100 | – | > 100 | > 100 | > 100 | > 100 | > 100 | > 100 | > 100 | > 100 |
| N#CC(C#N)=Cn1c(=S)[nH]c2ccccc21 | > 100 | > 100 | > 100 | > 100 | > 100 | > 100 | > 100 | > 100 | > 100 | > 100 | – |
| O=C(NNC(=O)c1ccccc1O)c1ccc(O)cc1 | 94.7 | > 100 | > 100 | > 100 | – | > 100 | > 100 | > 100 | > 100 | > 100 | > 100 |
| CC(=O)c1sc(=N)n(-c2c(C)cccc2C)c1C | > 100 | > 100 | > 100 | > 100 | > 100 | > 100 | > 100 | – | > 100 | > 100 | > 100 |
| Cc1cc(-c2nc3cccc(F)c3s2)ccc1N | > 100 | > 100 | > 100 | > 100 | – | > 100 | > 100 | > 100 | > 100 | > 100 | > 100 |
| CC1=C(C(=O)Nc2ccc([N+](=O)[O-])cc2)C(c2ccccc2F)C(C(=O)Nc2ccc([N+](=O)[O-])cc2)=C(C)N1 | 24.7 | 42.6 | – | > 100 | 44.4 | – | 95.2 | > 100 | > 100 | 53.9 | – |
| CN(C)Cc1cc(N=Nc2ccc(Cl)cc2)ccc1OC(=O)c1ccccc1 | – | 31 | 28.7 | 35.8 | 34.4 | 30.1 | 27.5 | 34.4 | 13.6 | 29.6 | 29.1 |
| Cc1cc(Cl)ccc1C1OC(=O)c2c1ccc1ccccc21 (stereo not given) | > 100 | > 100 | – | > 100 | > 100 | – | > 100 | > 100 | > 100 | > 100 | > 100 |
| Nc1n[nH]c(CCc2nc(N)n[nH]2)n1 | > 100 | > 100 | – | > 100 | > 100 | – | > 100 | > 100 | > 100 | > 100 | > 100 |
| C[C@]12CC[C@H](O)CC1=CC[C@@H]1C2CC[C@]2(C)Nc3c(cnn3-c3ccc(F)cc3)CC12 (stereo not given in full) | – | > 100 | > 100 | > 100 | > 100 | > 100 | > 100 | > 100 | > 100 | > 100 | > 100 |
| CC(C)c1cc(OCC(O)CO)cc(C(C)C)c1 (stereo not given) | > 100 | > 100 | – | > 100 | > 100 | – | > 100 | > 100 | > 100 | > 100 | > 100 |
| COc1ccc(CCc2nccn2C)cc1OC | > 100 | > 100 | > 100 | > 100 | > 100 | > 100 | > 100 | > 100 | > 100 | – | > 100 |
| Cc1cccc(C(C)(C)C)c1NC(=O)CC1Sc2ccccc2NC1=O (stereo not given) | – | > 100 | – | 73.5 | > 100 | – | > 100 | > 100 | > 100 | > 100 | – |
| Cc1ccccc1N=NC(C(=O)c1ccccc1)C(=O)c1ccccc1 | 46.5 | > 100 | – | > 100 | 55.2 | – | > 100 | > 100 | > 100 | > 100 | 80.8 |
| Cc1ccc(NC(=O)C(=O)Cc2cc[n+]([O-])cc2)cc1 | > 100 | > 100 | – | > 100 | > 100 | – | > 100 | > 100 | > 100 | > 100 | > 100 |
| C=CCN1CN(c2ccccc2)C2(CCN(CCCC3(c4ccc(F)cc4)OCCO3)CC2)C1=O | – | 30.6 | 30.5 | 25.4 | 30 | – | 20.4 | 32.5 | 42.9 | 29.8 | 25.7 |
| O=[N+]([O-])c1cccc(C2=NOC3C4CCC(C4)C23)c1 (stereo not given) | > 100 | > 100 | – | – | > 100 | – | > 100 | > 100 | > 100 | > 100 | > 100 |
| CCC1CN2CCC3(c4ccccc4)CC(C(=O)OC)=CC1C23 (stereo not given) | – | 29.7 | – | 24.9 | 28.9 | – | 31.7 | 33.7 | 35.8 | 28.2 | 31.9 |

| Compound | TGI (SK-MEL-2 melanoma) [µM] | TGI (MALME-3M melanoma) [µM] | TGI (MCF7 breast) [µM] | TGI (K-562 leukemia) [µM] | TGI (NCI-H23 lung) [µM] | TGI (MDA-N) [µM] | TGI (HT29 colon) [µM] | TGI (OVCAR-8 ovarian) [µM] | TGI (A549 NSCLC) [µM] | TGI (KM12 colon) [µM] | TGI (HCT-15 colon) [µM] |
| --- | --- | --- | --- | --- | --- | --- | --- | --- | --- | --- | --- |
| CCOP(=O)(OCC)/C(C#N)=C/c1ccnc2ccccc12 | 50.5 | > 100 | > 100 | – | 59.7 | 42.2 | 37.5 | 52 | > 100 | 91.3 | 52.4 |
| CC(C)(C)OC(=O)N(CCCCNCc1ccc2ccccc2c1)CCCNCc1ccc2ccccc2c1 | – | – | – | 1.11 | 3.42 | – | 2.17 | 3.08 | 3.82 | 2.73 | 3.12 |
| COc1ccc2c(c1)CCC(OS(=O)(=O)CC13CCC(CC1=O)C3(C)C)C2=O (stereo not given) | 55.8 | > 100 | – | > 100 | 36.1 | – | – | 38.6 | 78 | 41.1 | 92 |
| COP(=O)(OC)/C(=C\c1cn(C(c2ccccc2)(c2ccccc2)c2ccccc2)cn1)NC(C)=O | – | > 100 | > 100 | > 100 | > 100 | > 100 | > 100 | > 100 | > 100 | > 100 | > 100 |
| O=C(CC1C(=O)c2ccccc2C1=C1C(=O)c2ccccc2C1=O)c1ccccc1 (stereo not given) | > 100 | > 100 | – | > 100 | > 100 | – | > 100 | > 100 | > 100 | > 100 | > 100 |
| c1ccc2cc3c(cc2c1)nc1ccccn13 | – | > 100 | > 100 | > 100 | > 100 | > 100 | – | > 100 | > 100 | > 100 | > 100 |
| N#Cc1nc(COCCOCc2ccc(F)cc2)oc1N | > 100 | – | > 100 | > 100 | > 100 | – | > 100 | > 100 | > 100 | > 100 | > 100 |
| O=C1Oc2cc3c(c4cccc1c24)O[C@H](c1ccccc1)[C@@H](c1ccccc1)[C@@H]3c1ccc(Cl)cc1 | – | > 100 | > 100 | > 100 | > 100 | > 100 | > 100 | 95.8 | – | > 100 | > 100 |
| COc1ccccc1CNC(=O)[C@H](Cc1ccc(O)cn1)NC(C)=O | > 100 | > 100 | > 100 | > 100 | > 100 | > 100 | > 100 | – | > 100 | > 100 | > 100 |
| Cc1cccc2c(=O)c3cccc([C@@H](C)C(=O)O)c3oc12 | > 100 | – | – | > 100 | > 100 | > 100 | > 100 | > 100 | > 100 | > 100 | > 100 |
| COc1ccc(CCNC(=O)[C@H]2CCCC[C@@H]2CCO)cc1OC | > 100 | – | > 100 | > 100 | > 100 | – | > 100 | > 100 | > 100 | > 100 | > 100 |
| CCC(=O)N/N=C(\C=C\c1cccc(O)c1)c1sc(Nc2ccc(C)cc2[N+](=O)[O-])nc1C | > 100 | > 100 | – | > 100 | 6.72 | – | 40.6 | > 100 | > 100 | > 100 | > 100 |
| COCCOC(=O)C(C)=[N+]=[N-] | – | > 100 | > 100 | > 100 | > 100 | > 100 | > 100 | > 100 | – | > 100 | > 100 |
| COc1cc(C(=O)Oc2c(C#N)sc3c2c(=O)n(-c2ccccc2)c(=S)n3-c2ccccc2)cc(OC)c1OC | – | 28 | 57.1 | 82.2 | 38.9 | > 100 | 22.4 | 59.2 | 95.3 | 39.7 | 43 |
| N#CC1=C(Cl)NC(Cl)=C(C#N)C1c1c(Cl)cccc1Cl | > 100 | > 100 | – | 46.9 | > 100 | – | > 100 | 80 | 83.6 | 48.6 | 29.7 |
| Cc1cc(N(CCC#N)CCC#N)ccc1C=Nc1ccc(C(=O)NN2C(=O)/C(=C/c3ccc(N(CCC#N)CCC#N)cc3)N=C2c2cc([N+](=O)[O-])ccc2Cl)cc1 | > 100 | > 100 | – | > 100 | > 100 | – | > 100 | > 100 | > 100 | > 100 | > 100 |
| COc1cccc(-c2nc(-c3cnccn3)n(COCCO)n2)c1 | – | – | > 100 | > 100 | > 100 | > 100 | > 100 | > 100 | > 100 | > 100 | > 100 |
| O=C(/C=C1/Nc2ccc([N+](=O)[O-])cc2NC1O)c1cccc([N+](=O)[O-])c1 (stereo not given) | – | > 100 | – | > 100 | > 100 | – | > 100 | 48.7 | > 100 | – | > 100 |
| O=C(Nc1ccn(CCI)c(=O)n1)c1ccccc1 | > 100 | > 100 | – | > 100 | – | – | > 100 | > 100 | > 100 | > 100 | > 100 |
| O=c1[nH]n(Cc2ccccc2Cl)c2ccccc12 | > 100 | > 100 | – | > 100 | > 100 | > 100 | > 100 | > 100 | > 100 | > 100 | > 100 |
| N#CCCN(CCN(CCC#N)C(=O)Nc1ccccc1)C(=O)Nc1ccccc1 | > 100 | > 100 | > 100 | > 100 | > 100 | > 100 | > 100 | > 100 | > 100 | – | > 100 |
| CC1(C)O[C@@H](CBr)C[C@H](C[C@H]2C[C@@H](O)C[C@@H](CCOCc3ccccc3)O2)O1 | 32 | 35.1 | 46.2 | > 100 | 36.7 | – | – | 47.7 | 75.7 | 40.7 | 57.1 |
